25 compounds from ChEMBL document CHEMBL1129814, “Synthesis of thiophenes and thieno[3,2-c]pyran-4-ones as antileishmanial and antifungal agents” (1997) can be followed below.

Molecules are shown by their SMILES. Values after ≈ are worked out from the molar mass of the structure shown.

One assay has as its system Aspergillus fumigatus. The experiment in a line: Antifungal activity against Aspergillus fumigatus (AF-27). The class given is functional.
The subject of a further assay is Candida albicans. Nature of the assay: Antifungal activity against Candida albicans (SKF). The class given is functional.
A further assay relates to Cryptococcus neoformans. Nature of the assay: Antifungal activity against Cryptococcus neoformans (CN-17). The class given is functional.
For another assay, the system named is Leishmania donovani. The experiment in a line: An vitro anti-leishmanial activity against Leishmania donovani promastigotes (25 uM). The class given is functional.
The next assay concerns Sporothrix schenckii. The experiment in a line: In vitro for antifungal activity against Sporothrix schenck ii (SS-1). The class given is functional.
The test system of a further assay is Trichophyton benhamiae. The experiment in a line: In vitro for antifungal activity against Trichophyton mentagrophytes (A-280). The class given is functional, Arthroderma benhamiae.

As usually defined, the MIC is the smallest concentration in the dilution series that meets the test's criterion for growth inhibition. Turning to `CCOC(=O)c1sc(SC)c(C(=O)OCC)c1O`, the MIC with Aspergillus fumigatus, against Candida albicans, in the assay on Cryptococcus neoformans, in the assay on Sporothrix schenckii and in the assay with Trichophyton benhamiae was above 100 µg/mL each time. The compound further had a Growth inhibition with Leishmania donovani of 63%.
Consider `CCOC(=O)c1sc2cc(-c3cccc([N+](=O)[O-])c3)oc(=O)c2c1N`, for which the MIC with Aspergillus fumigatus, in the assay on Candida albicans, in the assay on Cryptococcus neoformans, in the assay with Sporothrix schenckii and against Trichophyton benhamiae was above 100 µg/mL throughout. This compound also returned a Growth inhibition with Leishmania donovani of 28%.
As for `CCOC(=O)c1sc2cc(-c3ccc(Cl)cc3)oc(=O)c2c1N`, the MIC in the assay on Aspergillus fumigatus, in the assay with Candida albicans, in the assay with Cryptococcus neoformans, in the assay with Sporothrix schenckii and against Trichophyton benhamiae was above 100 µg/mL throughout. In the assay with Leishmania donovani, this compound displayed a Growth inhibition of 24%.
Consider `CSc1cc(-c2ccc(Br)cc2)c(C(=O)O)s1`, for which the MIC in the assay with Aspergillus fumigatus was above 100 µg/mL; in the assay on Candida albicans, above 100 µg/mL; against Cryptococcus neoformans it was above 100 µg/mL; with Sporothrix schenckii it was above 100 µg/mL; against Trichophyton benhamiae, 50 µg/mL (≈ 152 µM). Besides, the Growth inhibition in the assay on Leishmania donovani worked out at 100%.
On to `CCOC(=O)c1sc(SC)cc1-c1ccc(Br)cc1`, for which the MIC in the assay with Aspergillus fumigatus, with Candida albicans, against Cryptococcus neoformans, against Sporothrix schenckii and against Trichophyton benhamiae was above 100 µg/mL in each case. In the assay on Leishmania donovani, the Growth inhibition is listed as 20%.
Turning to `CCOC(=O)c1sc(SC)cc1-c1cccnc1`, the MIC against Aspergillus fumigatus amounted to 50 µg/mL (≈ 179 µM); in the assay with Candida albicans, 25 µg/mL (≈ 89.5 µM); in the assay with Cryptococcus neoformans, 50 µg/mL (≈ 179 µM); in the assay on Sporothrix schenckii it was 25 µg/mL (≈ 89.5 µM); against Trichophyton benhamiae it was 25 µg/mL (≈ 89.5 µM). Also, the Growth inhibition with Leishmania donovani amounted to 25%.
With `CCOC(=O)c1sc(SC)cc1-c1ccccc1`, the MIC with Aspergillus fumigatus, against Candida albicans, in the assay on Cryptococcus neoformans, in the assay with Sporothrix schenckii and in the assay on Trichophyton benhamiae was above 100 µg/mL in each case. This compound yielded a Growth inhibition in the assay with Leishmania donovani of 30%.
Consider `CCOC(=O)c1sc2cc(-c3cccnc3)oc(=O)c2c1N`, for which the MIC in the assay on Aspergillus fumigatus, in the assay with Candida albicans, against Cryptococcus neoformans, with Sporothrix schenckii and in the assay with Trichophyton benhamiae was above 100 µg/mL throughout. The same compound gave a Growth inhibition with Leishmania donovani of 15%.
Turning to `CCOC(=O)c1sc2cc(-c3cc(F)c(Cl)cc3Cl)oc(=O)c2c1N`, the MIC in the assay on Aspergillus fumigatus, against Candida albicans, with Cryptococcus neoformans, in the assay with Sporothrix schenckii and against Trichophyton benhamiae was above 100 µg/mL in each case. In the assay with Leishmania donovani, the Growth inhibition was 70%.
In the case of `CSc1cc(-c2ccc(Cl)cc2)c(C(=O)O)s1`, the MIC against Aspergillus fumigatus, in the assay on Candida albicans, against Cryptococcus neoformans, with Sporothrix schenckii and in the assay with Trichophyton benhamiae was above 100 µg/mL in each case. Besides, in the assay with Leishmania donovani, the Growth inhibition is 30%.
For the compound `CCOC(=O)c1sc(SC)cc1-c1ccc(F)cc1`, the minimum inhibitory concentration (MIC) against Aspergillus fumigatus, against Candida albicans, in the assay with Cryptococcus neoformans, with Sporothrix schenckii and in the assay with Trichophyton benhamiae was above 100 µg/mL throughout. The Growth inhibition in the assay with Leishmania donovani is reported as 95%.
For `CCOC(=O)c1sc2cc(-c3ccc([N+](=O)[O-])cc3)oc(=O)c2c1N`, the MIC with Aspergillus fumigatus, in the assay with Candida albicans, in the assay on Cryptococcus neoformans, in the assay on Sporothrix schenckii and against Trichophyton benhamiae was above 100 µg/mL in each case. Besides, the Growth inhibition in the assay on Leishmania donovani is recorded as 20%.
On to `CCOC(=O)c1sc(SC)c(C#N)c1N`, for which the MIC in the assay on Aspergillus fumigatus, with Candida albicans, against Cryptococcus neoformans, against Sporothrix schenckii and against Trichophyton benhamiae was above 100 µg/mL each time. Besides, in the assay with Leishmania donovani, the Growth inhibition amounted to 25%.
For `CCOC(=O)c1sc2cc(-c3ccc(F)cc3)oc(=O)c2c1N`, the MIC with Aspergillus fumigatus, in the assay on Candida albicans, in the assay with Cryptococcus neoformans, against Sporothrix schenckii and against Trichophyton benhamiae was above 100 µg/mL throughout. In the assay on Leishmania donovani, this compound gave a Growth inhibition of 30%.
For `CSc1cc(-c2cccnc2)c(C(=O)O)s1`, the MIC against Aspergillus fumigatus, in the assay with Candida albicans, in the assay with Cryptococcus neoformans, against Sporothrix schenckii and against Trichophyton benhamiae was above 100 µg/mL each time. This compound gave a Growth inhibition with Leishmania donovani of 25%.
Take `CCOC(=O)c1sc(SC)cc1-c1ccc(C)cc1`: the minimum inhibitory concentration (MIC) with Aspergillus fumigatus, with Candida albicans, against Cryptococcus neoformans, against Sporothrix schenckii and in the assay with Trichophyton benhamiae was above 100 µg/mL each time. In the assay on Leishmania donovani, this compound had a Growth inhibition of 100%.
For `CCOC(=O)c1sc2cc(-c3ccc(Br)cc3)oc(=O)c2c1N`, the MIC with Aspergillus fumigatus, against Candida albicans, in the assay with Cryptococcus neoformans, in the assay with Sporothrix schenckii and in the assay on Trichophyton benhamiae was above 100 µg/mL in each case. This compound also registered a Growth inhibition with Leishmania donovani of 8%.
For `CCOC(=O)c1sc(SC)cc1-c1ccc(Cl)cc1`, the minimal inhibitory concentration (MIC) in the assay with Aspergillus fumigatus, against Candida albicans, in the assay with Cryptococcus neoformans, with Sporothrix schenckii and in the assay with Trichophyton benhamiae was above 100 µg/mL in each case. For the same compound, the Growth inhibition with Leishmania donovani amounted to 55%.
With `CSc1cc(-c2ccc(C)cc2)c(C(=O)O)s1`, the MIC with Aspergillus fumigatus, against Candida albicans, in the assay with Cryptococcus neoformans, against Sporothrix schenckii and with Trichophyton benhamiae was above 100 µg/mL throughout. Moreover, the Growth inhibition in the assay with Leishmania donovani is recorded as 10%.
For `CCOC(=O)c1sc2cc(-c3ccc(OC)cc3)oc(=O)c2c1N`, the MIC in the assay on Aspergillus fumigatus, against Candida albicans, against Cryptococcus neoformans, in the assay on Sporothrix schenckii and against Trichophyton benhamiae was above 100 µg/mL throughout. For the same compound, the Growth inhibition with Leishmania donovani was 10%.
`CSc1cc(-c2ccc(F)cc2)c(C(=O)O)s1`: the MIC in the assay with Aspergillus fumigatus is above 100 µg/mL; in the assay with Candida albicans, above 100 µg/mL; against Cryptococcus neoformans it was above 100 µg/mL; in the assay on Sporothrix schenckii it was above 100 µg/mL; in the assay on Trichophyton benhamiae, 50 µg/mL (≈ 186 µM). Also, the Growth inhibition with Leishmania donovani was 40%.
`CCOC(=O)c1sc(SC)c(C(=O)OC)c1O`: the MIC with Aspergillus fumigatus came out at 25 µg/mL (≈ 90.5 µM); in the assay on Candida albicans it was 50 µg/mL (≈ 181 µM); against Cryptococcus neoformans it was 12.5 µg/mL (≈ 45.2 µM); in the assay with Sporothrix schenckii it was 12.5 µg/mL (≈ 45.2 µM); in the assay on Trichophyton benhamiae, 6.25 µg/mL (≈ 22.6 µM). The same compound registered a Growth inhibition in the assay with Leishmania donovani of 95%.
On to `CCOC(=O)c1sc(SC)c(C#N)c1O`, for which the MIC with Aspergillus fumigatus is above 100 µg/mL; with Candida albicans, above 100 µg/mL; in the assay on Cryptococcus neoformans, above 100 µg/mL; against Sporothrix schenckii, above 100 µg/mL; against Trichophyton benhamiae, 50 µg/mL (≈ 206 µM). The Growth inhibition with Leishmania donovani is given as 60%.
In the case of `CC(=O)N1CCN(c2ccc(OC[C@H]3CO[C@](Cn4ccnc4)(c4ccc(Cl)cc4Cl)O3)cc2)CC1` [KETOCONAZOLE], the MIC in the assay with Aspergillus fumigatus stood at 0.7 µg/mL (≈ 1.32 µM); in the assay on Candida albicans it was 0.1 µg/mL (≈ 0.188 µM); in the assay on Cryptococcus neoformans, 0.3 µg/mL (≈ 0.565 µM); in the assay on Sporothrix schenckii, 0.1 µg/mL (≈ 0.188 µM); against Trichophyton benhamiae it was 25 µg/mL (≈ 47 µM).
In turn, `N=C(N)c1ccc(OCCCCCOc2ccc(C(=N)N)cc2)cc1` [PENTAMIDINE] yielded a Growth inhibition in the assay with Leishmania donovani of 100%.
